The test relates to human pluripotent stem cells (hPSCs). Briefly: Spontaneous differentiation of CHIR-induced mesendodermal cells after CHIR withdrawal, marker immunocytochemistry. Type of test: cell-based. The conditions noted are these: day 4. How it is done: Mesendoderm differentiation—the media is changed to Advanced RPMI (A-RPMI, Invitrogen) supplemented with 1×L-glutamax and 1× penicillin/streptomycin and either CHIR99021 (CHIR, Stemgent), human Wnt3a (R&D systems), and/or human activin A (R&D systems) at the doses described. Definitive endoderm differentiation—cells are treated with A-RPMI+1×L-glu+1×P/S+5 μM CHIR for 24 hours, then A-RPMI+1×Lglu+1×P/S+100 ng/mL of activin A for 2-3 days. Hepatic differentiation—cells at the definitive endoderm stage are treated with A-RPMI+1×L-glu+1×P/S+1×B27 supplement (Invitrogen)+20 ng/mL BMP-4 (R&D systems)+10 ng/mL FGF2 (Invitrogen) for 5 days, then A-RPMI+1×L-glu+1×P/S+1×B27+10 ng/mL HGF for 5 days, then HCM Hepatocyte Culture Medium (Lonza) supplemented with 20 ng/mL Oncostatin M and 10 ng/mL HGF (Peprotech) for 5 days. Pancreatic differentiation—cells at the definitive endoderm stage are treated with DMEM/F12+2% FBS (Hyclone)+50 ng/mL FGF7 (R&D systems) for 2 days, then high-glucose DMEM (Mediatech)+1% B27+2 μM retinoic acid (Sigma)+0.25 μM KAAD cyclopamine (EMD Millipore)+100 ng/mL recombinant human Noggin (R&D systems) for 4 days, then high-glucose DMEM+1% B27+100 ng/mL Noggin+300 nM indolactam V (Stemgent)+1 μM ALK5 inhibitor II (Axxora) for 4 days. Anterior foregut endoderm differentiation—cells at the definitive endoderm stage are treated with DMEM/F12+1×L-glu+1×B27+200 ng/mL Noggin+10 μM SB431542 (Stemgent) for 3 days. For hindgut endoderm differentiation, cells at the definitive endoderm stage were treated with A-RPMI+1×L-glu+1×P/S+2% FBS+500 ng/mL FGF4 (R&D systems)+5 μM CHIR for 4 days. […] Intermediate mesoderm differentiation—cells are treated with A-RPMI+1×L-glu+1×P/S+5 μM CHIR for 24, 36, or 48 hours, then A-RPMI+1×L-glu+1×P/S+100 ng/mL FGF2+1 μM retinoic acid for 2-3 days. Cap mesenchyme differentiation—cells were treated with A-RPMI+13 L-glu+13 P/S+[…] CHIR for 36 hours, then A-RPMI+13 L-glu+13 P/S+100 ng/ml FGF2+1 mM retinoic acid for 36-42 hours, then A-RPMI+13L-glu+13P/S+100 ng/ml FGF-9 (R&D Systems)+10 ng/ml activin A for 3 days.
For immunofluorescence studies, cultures are washed once with PBS (Invitrogen) and fixed in 4% paraformaldehyde for 15 min at room temperature (RT). Fixed cells are then washed three times in PBS and incubated in blocking buffer (0.3% Triton X-100 (Fisher Scientific) and 5% normal donkey serum (EMD Millipore) in PBS) for 1 hour at RT.
The cells are then incubated with primary antibody overnight at 4° C. or for 2 hours at RT in antibody dilution buffer (0.3% Triton X-100 and 1% BSA (Roche) in PBS). Cells are then washed three times in PBS and incubated with Alexa Fluor 488-, 555-, or 647-conjugated secondary antibodies (1:500) (Molecular Probes) in antibody dilution buffer for 1 hour at RT. For immunostaining with Biotinylated Lotus Tetragonolobus Lectin (LTL, Vector Labs), a Streptavidin/Biotin Blocking Kit (Vector Labs) and Alexa Fluor 488- or 647-conjugated Streptavidin (Molecular Probes) were used according to manufacturer's instructions.
Nuclei can be counterstained with DAPI (Sigma). […] Immunofluorescence is visualized using an inverted fluorescence microscope (Nikon Eclipse Ti, Tokyo, Japan). Quantification is performed by counting a minimum of five random fields at 10× magnification.
To determine whether treatment with CHIR alone is sufficient to induce differentiation towards IM, the Inventors investigated the intrinsic multipotency of CHIR-induced mesendodermal cells by withdrawing CHIR from the culture media after either 24 or 48 hours of induction and allowing the cells to differentiate for another 3-4 days (FIG. 2A).

[1] abbreviates: CHIR pulse 24 hours then withdrawal.

Consider `Cc1c[nH]c(-c2cnc(NCCNc3ccc(C#N)cn3)nc2-c2ccc(Cl)cc2Cl)n1` [CHIR99021], for which, under setting [1], the “FOXF1+ lateral plate mesoderm cells” value was “approximately 40%” and the “cells expressing pluripotency marker OCT4” value is 30-40%. Moreover, under “CHIR treatment 48 hours”, the “appearance of OCT4+ cells” value is reported as “eliminated the appearance of OCT4+ cells” and the “cells staining positive for FOXF1” value is “greater than 80%”. In addition, under “CHIR treatment alone”, the “cells expressing PAX6” value is under 1%, the “cells expressing SOX17” value was under 1%, the “cells with protein expression of IM marker PAX2” value is under 1% and the “cells with protein expression of paraxial mesoderm marker TBX6” value is listed as under 10%.
